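Tested at 5 concentrations; 48 h exposure; 96-well plates; endpoints linearly interpolated, else capped at highest concentration. GI50: concentration for 50% inhibition of growth.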 Active and inactive are the calls of the source. No stated cut-off is given here; in the data, active = GI50 up to about 1.1 µM and inactive = higher.
What was measured:
Assay in all cases: DTP human tumour cell line panel, 48 h
[1] = tested on: EKVX
[2] = tested on: U-251
[3] = tested on: SK-MEL-5
[4] = tested on: UACC-257
[5] = tested on: SN12C
[6] = tested on: HOP-62
[7] = tested on: M19-MEL
[8] = tested on: SNB-75
[9] = tested on: HOP-18
[10] = tested on: COLO 205
[11] = tested on: NCI-H23
[12] = tested on: SR
[13] = tested on: RXF 393
[14] = tested on: OVCAR-4
[15] = tested on: KM12
[16] = tested on: UO-31
[17] = tested on: DMS-114
[18] = tested on: XF498
[19] = tested on: KM-20L2
[20] = tested on: DMS-273
[21] = tested on: NCI-H226
[22] = tested on: RPMI-8226
[23] = tested on: HCT-116
[24] = tested on: NCI-H522
[25] = tested on: A549
[26] = tested on: OVCAR-3
[27] = tested on: HT-29
[28] = tested on: SK-OV-3
[29] = tested on: 786-0
[30] = tested on: HOP-92
[31] = tested on: SF-539
[32] = tested on: CAKI-1
[33] = tested on: LXFL 529
[34] = tested on: M14
[35] = tested on: Malme-3M
[36] = tested on: NCI-H460
[37] = tested on: ACHN
[38] = tested on: HCT-15
[39] = tested on: RXF 631
[40] = tested on: HCC 2998
[41] = tested on: SNB-19
[42] = tested on: SF-295
[43] = tested on: SNB-78
[44] = tested on: HL-60
[45] = tested on: DLD-1
[46] = tested on: SW-620
[47] = tested on: UACC-62
[48] = tested on: IGROV-1
[49] = tested on: SK-MEL-2
[50] = tested on: OVCAR-8
[51] = tested on: MOLT-4
[52] = tested on: K562
[53] = tested on: A498
[54] = tested on: TK-10
[55] = tested on: OVCAR-5
[56] = tested on: SK-MEL-28
[57] = tested on: CCRF-CEM
[58] = tested on: LOX IMVI
[59] = tested on: SF-268

CCCCCCCSCC1C(=O)C23C(O)C1CCC2C12COC3(O)C(O)C1C(C)(C)CCC2O (configuration not stated)
GI50 [1]: 17.7 µM (inactive)
GI50 [2]: 10.7 µM (inactive)
GI50 [3]: 12.1 µM (inactive)
GI50 [4]: 7.16 µM (inactive)
GI50 [5]: 8.41 µM (inactive)
GI50 [6]: 20.3 µM (inactive)
GI50 [7]: 15.3 µM (inactive)
GI50 [8]: 21.2 µM (inactive)
GI50 [9]: 12.5 µM (inactive)
GI50 [10]: 4.16 µM (inactive)
GI50 [11]: 16.3 µM (inactive)
GI50 [12]: 4.92 µM (inactive)
GI50 [13]: 11.2 µM (inactive)
GI50 [14]: 11.8 µM (inactive)
GI50 [15]: 10.6 µM (inactive)
GI50 [16]: 11.2 µM (inactive)
GI50 [17]: 8.38 µM (inactive)
GI50 [18]: 18.5 µM (inactive)
GI50 [19]: 12 µM (inactive)
GI50 [20]: 12.6 µM (inactive)
GI50 [21]: 17.7 µM (inactive)
GI50 [22]: 4.06 µM (inactive)
GI50 [23]: 5.5 µM (inactive)
GI50 [24]: 1.4 µM (inactive)
GI50 [25]: 18.7 µM (inactive)
GI50 [26]: 16.7 µM (inactive)
GI50 [27]: 13.5 µM (inactive)
GI50 [28]: 18.1 µM (inactive)
GI50 [29]: 13.8 µM (inactive)
GI50 [30]: 13.9 µM (inactive)
GI50 [31]: 13.2 µM (inactive)
GI50 [32]: 4.83 µM (inactive)
GI50 [33]: 2.37 µM (inactive)
GI50 [34]: 12.2 µM (inactive)
GI50 [35]: 14.1 µM (inactive)
GI50 [36]: 15.1 µM (inactive)
GI50 [37]: 12.4 µM (inactive)
GI50 [38]: 9.02 µM
GI50 [39]: 5.04 µM (inactive)
GI50 [40]: 15 µM (inactive)
GI50 [41]: 18.9 µM (inactive)
GI50 [42]: 17.9 µM (inactive)
GI50 [43]: 15.3 µM (inactive)
GI50 [44]: 3.96 µM (inactive)
GI50 [45]: 14.4 µM (inactive)
GI50 [46]: 0.881 µM (active)
GI50 [47]: 11.5 µM (inactive)
GI50 [48]: 17.9 µM (inactive)
GI50 [49]: 14.8 µM (inactive)
GI50 [50]: 16.4 µM (inactive)
GI50 [51]: 3.3 µM (inactive)
GI50 [52]: 3.98 µM (inactive)
GI50 [53]: 11.5 µM (inactive)
GI50 [54]: 15.9 µM (inactive)
GI50 [55]: 17.5 µM (inactive)
GI50 [56]: 9.51 µM (inactive)
GI50 [57]: 2.75 µM (inactive)
GI50 [58]: 13.3 µM (inactive)
GI50 [59]: 10.8 µM (inactive)

CCSC1=CC(Cc2ccc(OC)cc2)N(C(=O)OC)C1 (configuration not stated)
GI50 [1]: > 100 µM (inactive)
GI50 [2]: > 100 µM (inactive)
GI50 [3]: 49.4 µM (inactive)
GI50 [4]: 90.6 µM (inactive)
GI50 [5]: > 100 µM (inactive)
GI50 [6]: > 100 µM (inactive)
GI50 [7]: > 100 µM (inactive)
GI50 [8]: > 100 µM (inactive)
GI50 [9]: > 100 µM (inactive)
GI50 [10]: 81.5 µM (inactive)
GI50 [11]: > 100 µM (inactive)
GI50 [12]: 26.3 µM (inactive)
GI50 [13]: 32.3 µM (inactive)
GI50 [14]: > 100 µM (inactive)
GI50 [15]: 97.7 µM (inactive)
GI50 [16]: > 100 µM (inactive)
GI50 [17]: 23.4 µM (inactive)
GI50 [18]: > 100 µM (inactive)
GI50 [19]: > 100 µM (inactive)
GI50 [20]: 70 µM (inactive)
GI50 [21]: > 100 µM (inactive)
GI50 [23]: 52.2 µM (inactive)
GI50 [24]: 52.6 µM (inactive)
GI50 [25]: > 100 µM (inactive)
GI50 [26]: 51.4 µM (inactive)
GI50 [27]: 94.2 µM (inactive)
GI50 [28]: > 100 µM (inactive)
GI50 [29]: > 100 µM (inactive)
GI50 [30]: 55.2 µM (inactive)
GI50 [31]: > 100 µM (inactive)
GI50 [32]: 86.5 µM (inactive)
GI50 [33]: 91.4 µM (inactive)
GI50 [34]: > 100 µM (inactive)
GI50 [35]: > 100 µM (inactive)
GI50 [36]: > 100 µM (inactive)
GI50 [37]: > 100 µM (inactive)
GI50 [38]: 40.7 µM
GI50 [39]: > 100 µM (inactive)
GI50 [40]: > 100 µM (inactive)
GI50 [41]: > 100 µM (inactive)
GI50 [42]: > 100 µM (inactive)
GI50 [43]: > 100 µM (inactive)
GI50 [44]: 21.9 µM (inactive)
GI50 [45]: 81.8 µM (inactive)
GI50 [46]: 25.2 µM (inactive)
GI50 [47]: 65.8 µM (inactive)
GI50 [48]: > 100 µM (inactive)
GI50 [49]: 97.7 µM (inactive)
GI50 [50]: > 100 µM (inactive)
GI50 [51]: > 100 µM (inactive)
GI50 [52]: 34.3 µM (inactive)
GI50 [53]: > 100 µM (inactive)
GI50 [54]: > 100 µM (inactive)
GI50 [55]: > 100 µM (inactive)
GI50 [56]: > 100 µM (inactive)
GI50 [57]: 49.7 µM (inactive)
GI50 [58]: 36.3 µM (inactive)
GI50 [59]: > 100 µM (inactive)

From ChEMBL document CHEMBL1201862, “PubChem BioAssay data set” (2004)
